Our source for the AC50 values is US20250262201A1, “COMPOUNDS AND METHODS USEFUL FOR STABILIZING PHENYLALANINE HYDROXYLASE MUTATIONS” (Agios Pharmaceuticals, Inc., priority 2022, published 2025).

Structures are written as SMILES. Read-outs that look alike come from different tables or passages of the source. Where only a bound is given, the exact number is not on record here.

For this experiment, the target named is T1, human PAH with the R408W mutation (Homo sapiens, UniProt P00439, R408W).
T1 construct: expressed in transfected cells
T1 sequence (P00439 1-452 R408W): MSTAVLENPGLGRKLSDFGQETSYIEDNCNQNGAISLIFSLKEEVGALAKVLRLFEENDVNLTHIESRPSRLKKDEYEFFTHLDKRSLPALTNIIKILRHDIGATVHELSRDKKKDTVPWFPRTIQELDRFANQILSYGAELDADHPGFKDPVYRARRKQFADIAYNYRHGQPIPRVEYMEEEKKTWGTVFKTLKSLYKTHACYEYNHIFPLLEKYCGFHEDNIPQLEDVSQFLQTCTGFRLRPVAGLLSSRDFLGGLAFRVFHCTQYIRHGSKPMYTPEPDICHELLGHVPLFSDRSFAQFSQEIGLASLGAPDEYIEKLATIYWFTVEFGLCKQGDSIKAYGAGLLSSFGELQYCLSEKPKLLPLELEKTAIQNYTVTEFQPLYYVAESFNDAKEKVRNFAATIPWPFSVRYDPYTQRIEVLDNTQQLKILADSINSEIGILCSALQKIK
Briefly: Cell Based Phenylalanine Flux Assay. Also on record: scale not given here. To be noted: 13C-Tyrosine by LC-MS, average where tested multiple times.

Setting [1] is: A375 R408W cells, 24 hrs with compound, then 20 μM sepiapterin and 800 μM 13C9,15N-Phenylalanine for 4 hours, read-out: AC50.
Where [2] appears, read: A375 cells expressing human R408W PAH, 24 hrs compound incubation, read-out: AC50.
Where [3] appears, read: A375 R408W cells, 24 hrs with compound, then 20 μM sepiapterin and 800 μM 13C9,15N-Phenylalanine for 4 hours.

By AC50 is commonly meant the concentration at which the activity in the assay is half-maximal. As for `CC(C)(O)c1nc(C2CC2)c(C(=O)N2CCc3[nH]cnc3C2c2ccc3ccccc3n2)o1` (centres unmarked), the concentration at half-maximal activity (AC50) under setting [1] lay within 1000 to 5000 nM.
Turning to `O=C(c1cncs1)N1CCc2[nH]cnc2C1c1ccc2ccccc2n1` (stereo in doubt) [Example 5, (R)-(4-(quinolin-2-yl)-6,7-dihydro-1H-imidazo[4,5-c]pyridin-5(4H)-yl)(thiazol-5-yl)methanone], under setting [2], the AC50 lay within 500 to 1000 nM.
Regarding `C[C@H]1CN(C(=O)c2cnc(-c3ccccn3)o2)[C@@H](c2cc3ccccc3cn2)c2nc[nH]c21` [Example 382, ((4S,7S)-4-(isoquinolin-3-yl)-7-methyl-6,7-dihydro-1H-imidazo[4,5-c]pyridin-5(4H)-yl)(2-(pyridin-2-yl)oxazol-5-yl)methanone], under setting [2], the AC50 is > 5000 nM.
`O=C(c1ocnc1C(F)(F)F)N1CCc2[nH]cnc2C1c1ccc2ccccc2n1` (stereo in doubt) [Example 38, (S)-(4-(quinolin-2-yl)-6,7-dihydro-1H-imidazo[4,5-c]pyridin-5(4H)-yl)(4-(trifluoromethyl)oxazol-5-yl)methanone]: under setting [2], the AC50 lay in the range of 1000 to 5000 nM.
`CC(F)(F)c1ncc(C(=O)N2CCc3[nH]cnc3C2c2ccc3ccccc3n2)s1` (stereo in doubt) [Example 40, (S)-(2-(1,1-difluoroethyl)thiazol-5-yl)(4-(quinolin-2-yl)-6,7-dihydro-1H-imidazo[4,5-c]pyridin-5(4H)-yl)methanone]: under setting [2], the AC50 lay within 1000 to 5000 nM.
As to `O=C(c1ncn2ccccc12)N1CCc2[nH]cnc2C1c1ccc2ccccc2n1` (centres unmarked), the AC50 under setting [1] was 1000 to 5000 nM.
Consider `O=C(c1cnn2cc(-c3cncnc3)ccc12)N1CCc2[nH]cnc2[C@H]1c1cc2ccccc2cn1` [Example 487, (R)-(4-(isoquinolin-3-yl)-6,7-dihydro-1H-imidazo[4,5-c]pyridin-5(4H)-yl)(6-(pyrimidin-5-yl)pyrazolo[1,5-a]pyridin-3-yl)methanone], for which the AC50 under setting [2] is < 500 nM.
`CC(C)(O)c1ccc2c(C(=O)N3CCc4[nH]cnc4C3c3ccc4ccccc4n3)cnn2c1` (centres unmarked): the AC50 under setting [1] was in the range of 1000 to 5000 nM.
The same measure, in the same setting: for `O=C(c1oc(-c2ccccn2)nc1C1CC1)N1CCc2nc[nH]c2[C@H]1c1cn2ccccc2n1` (single isomer, unassigned) the value was > 5000 nM.
With `CC(C)(F)c1ncc(C(=O)N2CCc3[nH]cnc3[C@H]2c2cc3ccccc3cn2)o1` [Example 339, (R)-(2-(2-fluoropropan-2-yl)oxazol-5-yl)(4-(isoquinolin-3-yl)-6,7-dihydro-1H-imidazo[4,5-c]pyridin-5(4H)-yl)methanone], the AC50 under setting [2] is < 500 nM.
Consider `CC1CN(C(=O)c2nnc(N3CCN(C)CC3)o2)C(c2cc3ccccc3cn2)c2nc[nH]c21` (centres unmarked), for which, under setting [1], the AC50 was in the range of 1000 to 5000 nM.
For `O=C(c1nnc(C2CC2)o1)N1CCc2[nH]cnc2[C@H]1c1cc2ccccc2cn1` [Example 326, (R)-(5-cyclopropyl-1,3,4-oxadiazol-2-yl)(4-(isoquinolin-3-yl)-6,7-dihydro-1H-imidazo[4,5-c]pyridin-5(4H)-yl)methanone], the AC50 under setting [2] was < 500 nM.
For `Cc1ncoc1C(=O)N1CCc2[nH]cnc2C1c1ccc2ccccc2n1` (centres unmarked), the AC50 under setting [1] was 1000 to 5000 nM.
`CC(C)(O)c1ncc(C(=O)N2CCc3[nH]cnc3C2c2ccc3ccccc3n2)s1` (centres unmarked): the AC50 under setting [1] was > 5000 nM.
In the case of `C[C@@H]1CN(C(=O)c2nnc(C3(C)CC3)o2)[C@@H](c2cc3ccccc3cn2)c2nc[nH]c21`, under setting [1], the AC50 is 1000 to 5000 nM.
Turning to `O=C(Cc1cnn2ccccc12)N1CCc2[nH]cnc2[C@H]1c1cc2ccccc2cn1` [Example 375, (R)-1-(4-(isoquinolin-3-yl)-6,7-dihydro-1H-imidazo[4,5-c]pyridin-5(4H)-yl)-2-(pyrazolo[1,5-a]pyridin-3-yl)ethanone], the AC50 under setting [2] was < 500 nM.
Regarding `O=C(Cn1cncn1)N1CCc2[nH]cnc2[C@H]1c1cc2ccccc2cn1` [Example 369, (R)-1-(4-(isoquinolin-3-yl)-6,7-dihydro-1H-imidazo[4,5-c]pyridin-5(4H)-yl)-2-(1H-1,2,4-triazol-1-yl)ethanone], the AC50 under setting [2] was in the range of 500 to 1000 nM.
Consider `O=C(c1nnc(-c2ccc(C(F)(F)F)cn2)o1)N1CCc2[nH]cnc2[C@@H]1c1ncc2ccccc2n1` [Example 169, (R)-(4-(quinazolin-2-yl)-6,7-dihydro-1H-imidazo[4,5-c]pyridin-5(4H)-yl)(5-(5-(trifluoromethyl)pyridin-2-yl)-1,3,4-oxadiazol-2-yl)methanone], for which, under setting [2], the AC50 is 1000 to 5000 nM.
On to `CC1CN(C(=O)c2nnc(-c3cnn(C)c3)o2)C(c2cc3ccccc3cn2)c2nc[nH]c21` (centres unmarked), for which the AC50 under setting [1] lay within 1000 to 5000 nM.
On to `Cc1nc(-c2ccccn2)oc1C(=O)N1CCc2[nH]cnc2[C@@H]1c1ncc2ccccc2n1` [Example 194, (R)-(4-methyl-2-(pyridin-2-yl)oxazol-5-yl)(4-(quinazolin-2-yl)-6,7-dihydro-1H-imidazo[4,5-c]pyridin-5(4H)-yl)methanone], for which, under setting [2], the AC50 lay in the range of 1000 to 5000 nM.
In the case of `O=C(c1cn[nH]c1C(F)F)N1CCc2[nH]cnc2C1c1ccc2ccccc2n1` (stereo in doubt) [Example 259, (R)-(5-(difluoromethyl)-1H-pyrazol-4-yl)(4-(quinolin-2-yl)-6,7-dihydro-1H-imidazo[4,5-c]pyridin-5(4H)-yl)methanone], the AC50 under setting [2] is < 500 nM.
`Cn1cncc1-c1nnc(C(=O)N2CCc3[nH]cnc3[C@H]2c2cc3ccccc3cn2)o1` [Example 444, (R)-(4-(isoquinolin-3-yl)-6,7-dihydro-1H-imidazo[4,5-c]pyridin-5(4H)-yl)(5-(1-methyl-1H-imidazol-5-yl)-1,3,4-oxadiazol-2-yl)methanone]: under setting [2], the AC50 was 500 to 1000 nM.
As to `O=C(c1cn(-c2ccccn2)nc1Cl)N1CCc2[nH]cnc2C1c1ccc2ccccc2n1` (stereo in doubt) [Example 110, (S)-(3-chloro-1-(pyridin-2-yl)-1H-pyrazol-4-yl)(4-(quinolin-2-yl)-6,7-dihydro-1H-imidazo[4,5-c]pyridin-5(4H)-yl)methanone], the AC50 under setting [2] was 1000 to 5000 nM.
Consider `O=C(CCc1cncs1)N1CCc2[nH]cnc2C1c1cn2ccccc2n1` (centres unmarked), for which the AC50 under setting [1] was > 5000 nM.
Regarding `CC(C)(F)c1nnc(C(=O)N2CCc3[nH]cnc3C2c2ccc3ccccc3n2)o1` (stereo in doubt) [Example 105, (R)-(5-(2-fluoropropan-2-yl)-1,3,4-oxadiazol-2-yl)(4-(quinolin-2-yl)-6,7-dihydro-1H-imidazo[4,5-c]pyridin-5(4H)-yl)methanone], the AC50 under setting [2] was in the range of 500 to 1000 nM.
Turning to `Cc1nnc(CCC(=O)N2CCc3[nH]cnc3C2c2cn3ccccc3n2)o1` (centres unmarked), under setting [1], the concentration at half-maximal activity (AC50) is > 5000 nM.
Regarding `O=C(c1nnc(N2CCOCC2)o1)N1CCc2[nH]cnc2C1c1ccc2ccccc2n1` (centres unmarked), the AC50 under setting [1] is > 5000 nM.
With `O=C(c1cnn2cc(N3CCC(F)CC3)ccc12)N1CCc2[nH]cnc2[C@H]1c1cc2ccccc2cn1` [Example 474, (R)-(6-(4-fluoropiperidin-1-yl)pyrazolo[1,5-a]pyridin-3-yl)(4-(isoquinolin-3-yl)-6,7-dihydro-1H-imidazo[4,5-c]pyridin-5(4H)-yl)methanone], the half-maximal activity concentration (AC50) under setting [2] fell in the range of 1000 to 5000 nM.
As for `Nc1nc(C(F)(F)F)c(C(=O)N2CCc3[nH]cnc3C2c2cn3ccccc3n2)o1` (centres unmarked), the AC50 result under setting [3] is “E, E”.
As for `O=C(CC1CC1)N1CCc2[nH]cnc2[C@H]1c1cn2ccccc2n1` [Example 238, (R)-2-cyclopropyl-1-(4-(imidazo[1,2-a]pyridin-2-yl)-6,7-dihydro-1H-imidazo[4,5-c]pyridin-5(4H)-yl)ethanone], under setting [2], the AC50 is < 500 nM.
Turning to `O=C(c1oc(-c2ccncn2)nc1C(F)F)N1CCc2[nH]cnc2C1c1ncc2ccccc2n1` (centres unmarked), the concentration at half-maximal activity (AC50) result under setting [3] is reported as “E, E”.
As for `FC(F)(F)c1cnc(N2CCc3[nH]cnc3C2c2ccc3ccccc3n2)nc1` (stereo in doubt) [Example 30, (S)-2-(5-(5-(trifluoromethyl)pyrimidin-2-yl)-4,5,6,7-tetrahydro-1H-imidazo[4,5-c]pyridin-4-yl)quinoline], the concentration at half-maximal activity (AC50) under setting [2] is > 5000 nM.
For the molecule `O=C(C1CC1(F)F)N1CCc2[nH]cnc2C1c1cn2ccccc2n1` (centres unmarked), the AC50 under setting [1] is > 5000 nM.
For the molecule `CC(C)(O)c1nnc(C(=O)N2CCc3[nH]cnc3[C@H]2c2cc3ccccc3cn2)o1` [Example 347, (R)-(5-(2-hydroxypropan-2-yl)-1,3,4-oxadiazol-2-yl)(4-(isoquinolin-3-yl)-6,7-dihydro-1H-imidazo[4,5-c]pyridin-5(4H)-yl)methanone], the AC50 under setting [2] is 500 to 1000 nM.
Still for that read-out and setting: for `CC(O)c1nc(Cl)c(C(=O)N2CCc3[nH]cnc3[C@H]2c2ccc3ccccc3n2)o1` (single isomer, unassigned) [Example 138] the value was < 500 nM.
As for `Cc1nc(N(C)C)oc1C(=O)N1CCc2[nH]cnc2C1c1ccc2ccccc2n1` (centres unmarked), the AC50 under setting [1] lay within 1000 to 5000 nM.
In the case of `CC(C)(F)c1ccc2c(C(=O)N3CCc4[nH]cnc4[C@H]3c3cc4ccccc4cn3)cnn2c1` [Example 344, (R)-(6-(2-fluoropropan-2-yl)pyrazolo[1,5-a]pyridin-3-yl)(4-(isoquinolin-3-yl)-6,7-dihydro-1H-imidazo[4,5-c]pyridin-5(4H)-yl)methanone], under setting [2], the AC50 lay in the range of 500 to 1000 nM.
In the case of `CN(C)Cc1ccc2c(C(=O)N3CCc4[nH]cnc4[C@@H]3c3ncc4ccccc4n3)cnn2c1` [Example 156, (R)-(6-((dimethylamino)methyl)pyrazolo[1,5-a]pyridin-3-yl)(4-(quinazolin-2-yl)-6,7-dihydro-1H-imidazo[4,5-c]pyridin-5(4H)-yl)methanone], the AC50 under setting [2] was > 5000 nM.
